Measurements taken from ChEMBL document CHEMBL4385604, “Identification of Pyrrolo[2,3- d]pyrimidine-Based Derivatives as Potent and Orally Effective Fms-like Tyrosine Receptor Kinase 3 (FLT3) Inhibitors for Treating Acute Myelogenous Leukemia” (J Med Chem, 2019).

Assays:
[1] = Toxicity in NOD/SCID mouse xenografted with human MV4-11 cells at 1 to 3 mg/kg, po qd for 14 days; assay type: organism-based; conditions: in vivo, 336 h
MV4-11 [2] = assay: Induction of apoptosis in human MV4-11 cells assessed as late apoptotic cells at 100 nM after 48 hrs by Annexin V/propidium iodide staining based flow cytometry (reference value: 2.83%); assay type: functional
[3] = Toxicity in NOD/SCID mouse xenografted with human MV4-11 cells at 10 mg/kg, po qd for 18 days; assay type: organism-based; conditions: in vivo, 432 h
[4] = test system: Receptor-type tyrosine-protein kinase FLT3 (Homo sapiens), P36888 [UNDEFINED MUTATION]; assay: Inhibition of FLT3 ITD mutant in human MOLM13 cells assessed as ratio of phosphorylated STAT5 to beta-actin level at 30 nM after 2 hrs by Western blot analysis relative to control; assay type: cell-based
MOLM-13 [5] = assay: Cell cycle arrest in human MOLM13 cells assessed as accumulation at S phase at 30 nM after 24 hrs by propidium iodide staining-based flow cytometric analysis (reference value: 41.95%); assay type: functional
[6] = biological target: Receptor-type tyrosine-protein kinase FLT3 (Homo sapiens) (UniProt P36888); assay: Inhibition of FLT3 autophosphorylation in human MV4-11 cells assessed as ratio of phosphorylated FLT3 to beta-actin level at 30 nM after 2 hrs by Western blot analysis relative to control; assay type: cell-based
MOLM-13 [7] = assay: Induction of apoptosis in human MOLM13 cells assessed as necrotic cells at 1 nM after 48 hrs by Annexin V/propidium iodide staining based flow cytometry (reference value: 0.29%); assay type: functional
MOLM-13 [8] = assay: Induction of apoptosis in human MOLM13 cells assessed as early apoptotic cells at 100 nM after 48 hrs by Annexin V/propidium iodide staining based flow cytometry (reference value: 5.97%); assay type: functional
MV4-11 [9] = assay: Cell cycle arrest in human MV4-11 cells assessed as accumulation at G0/G1 phase at 3 nM after 24 hrs by propidium iodide staining-based flow cytometric analysis (reference value: 48.76%); assay type: functional
[10] = biological target: Receptor-type tyrosine-protein kinase FLT3 (Homo sapiens) (UniProt P36888); assay: Inhibition of FLT3 autophosphorylation in human MOLM13 cells assessed as ratio of phosphorylated FLT3 to beta-actin level at 30 nM after 2 hrs by Western blot analysis relative to control; assay type: cell-based
MOLM-13 [11] = assay: Cell cycle arrest in human MOLM13 cells assessed as accumulation at G2/M phase at 30 nM after 24 hrs by propidium iodide staining-based flow cytometric analysis (reference value: 13.52%); assay type: functional
MOLM-13 [12] = assay: animal or person; conditions: Mus musculus, MOLM-13, po, read-out: TGI
Description: Antitumour activity against human MOLM13 cells xenografted in NOD/SCID mouse assessed as tumour growth inibition at 3 mg/kg, po qd for 10 days measured every two days during compound dosing by caliper method relative to control

[13] = test system: Receptor-type tyrosine-protein kinase FLT3 (Homo sapiens), P36888 [UNDEFINED MUTATION]; assay: Inhibition of FLT3 ITD mutant in human MV4-11 cells assessed as ratio of phosphorylated STAT5 to beta-actin level at 30 nM after 2 hrs by Western blot analysis relative to control; assay type: cell-based
MOLM-13 [14] = assay: Induction of apoptosis in human MOLM13 cells assessed as early apoptotic cells at 10 nM after 48 hrs by Annexin V/propidium iodide staining based flow cytometry (reference value: 5.97%); assay type: functional
Homo sapiens [15] = species: Homo sapiens; assay: Inhibition of MAPK in human MOLM13 cells assessed as ratio of phosphorylated ERK to beta-actin level at 30 nM after 2 hrs by Western blot analysis relative to control; assay type: cell-based
MV4-11 [16] = assay: Induction of apoptosis in human MV4-11 cells assessed as viable cells at 1 uM after 48 hrs by Annexin V/propidium iodide staining based flow cytometry (reference value: 94.4%); assay type: functional; conditions: MV4-11, 48 h, read-out: Activity
MV4-11 [17] = assay: Cell cycle arrest in human MV4-11 cells assessed as accumulation at S phase at 30 nM after 24 hrs by propidium iodide staining-based flow cytometric analysis (reference value: 30.12%); assay type: functional
MV4-11 [18] = assay: Antitumour activity against human MV4-11 cells xenografted in po dosed NOD/SCID mouse assessed as tumour growth inhibition administered daily for 14 days; assay type: functional, organism-based
MV4-11 [19] = assay: Induction of apoptosis in human MV4-11 cells assessed as viable cells at 1 nM after 48 hrs by Annexin V/propidium iodide staining based flow cytometry (reference value: 94.4%); assay type: functional; conditions: MV4-11, 48 h, read-out: Activity
HL-60 = assay: Antiproliferative activity against human HL60 cells harboring wild-type FLT3 measured after 72 hrs by MTT assay; assay type: functional, cell-based; conditions: HL-60, 72 h
MV4-11 [20] = assay: Cell cycle arrest in human MV4-11 cells assessed as accumulation at G2/M phase at 1 nM after 24 hrs by propidium iodide staining-based flow cytometric analysis (reference value: 21.12%); assay type: functional
Homo sapiens [21] = species: Homo sapiens; assay: Selectivity ratio of IC50 for recombinant human c-Kit (544 to end residues) to IC50 for recombinant human FLT3 (564 to end residues)
BaF3 = assay: cells; conditions: Mus musculus, BaF3, 72 h
Description: Antiproliferative activity against mouse BAF3 cells harboring FLT3-ITD-F691L mutant measured after 72 hrs by MTT assay

MOLM-13 [22] = assay: Antitumour activity against human MOLM13 cells xenografted in po dosed NOD/SCID mouse assessed as tumour growth inhibition administered daily for 10 days; assay type: functional, organism-based
MOLM-13 [23] = assay: cells; conditions: Homo sapiens, MOLM-13, 72 h
Description: Antiproliferative activity against human MOLM13 cells harboring FLT3-ITD mutant measured after 72 hrs by MTT assay

MV4-11 [24] = assay: Induction of apoptosis in human MV4-11 cells assessed as necrotic cells at 1 uM after 48 hrs by Annexin V/propidium iodide staining based flow cytometry (reference value: 0.06%); assay type: functional
MV4-11 [25] = assay: Induction of apoptosis in human MV4-11 cells assessed as late apoptotic cells at 10 uM after 48 hrs by Annexin V/propidium iodide staining based flow cytometry (reference value: 2.83%); assay type: functional
[26] = biological target: Receptor-type tyrosine-protein kinase FLT3 (Homo sapiens) (UniProt P36888); assay: Inhibition of FLT3 autophosphorylation in human MV4-11 cells assessed as ratio of phosphorylated FLT3 to beta-actin level at 100 nM after 2 hrs by Western blot analysis relative to control; assay type: cell-based
MV4-11 [27] = assay: Cell cycle arrest in human MV4-11 cells assessed as accumulation at G0/G1 phase at 30 nM after 24 hrs by propidium iodide staining-based flow cytometric analysis (reference value: 48.76%); assay type: functional

Chain of Receptor-type tyrosine-protein kinase FLT3 (Homo sapiens) (P36888 whole entry): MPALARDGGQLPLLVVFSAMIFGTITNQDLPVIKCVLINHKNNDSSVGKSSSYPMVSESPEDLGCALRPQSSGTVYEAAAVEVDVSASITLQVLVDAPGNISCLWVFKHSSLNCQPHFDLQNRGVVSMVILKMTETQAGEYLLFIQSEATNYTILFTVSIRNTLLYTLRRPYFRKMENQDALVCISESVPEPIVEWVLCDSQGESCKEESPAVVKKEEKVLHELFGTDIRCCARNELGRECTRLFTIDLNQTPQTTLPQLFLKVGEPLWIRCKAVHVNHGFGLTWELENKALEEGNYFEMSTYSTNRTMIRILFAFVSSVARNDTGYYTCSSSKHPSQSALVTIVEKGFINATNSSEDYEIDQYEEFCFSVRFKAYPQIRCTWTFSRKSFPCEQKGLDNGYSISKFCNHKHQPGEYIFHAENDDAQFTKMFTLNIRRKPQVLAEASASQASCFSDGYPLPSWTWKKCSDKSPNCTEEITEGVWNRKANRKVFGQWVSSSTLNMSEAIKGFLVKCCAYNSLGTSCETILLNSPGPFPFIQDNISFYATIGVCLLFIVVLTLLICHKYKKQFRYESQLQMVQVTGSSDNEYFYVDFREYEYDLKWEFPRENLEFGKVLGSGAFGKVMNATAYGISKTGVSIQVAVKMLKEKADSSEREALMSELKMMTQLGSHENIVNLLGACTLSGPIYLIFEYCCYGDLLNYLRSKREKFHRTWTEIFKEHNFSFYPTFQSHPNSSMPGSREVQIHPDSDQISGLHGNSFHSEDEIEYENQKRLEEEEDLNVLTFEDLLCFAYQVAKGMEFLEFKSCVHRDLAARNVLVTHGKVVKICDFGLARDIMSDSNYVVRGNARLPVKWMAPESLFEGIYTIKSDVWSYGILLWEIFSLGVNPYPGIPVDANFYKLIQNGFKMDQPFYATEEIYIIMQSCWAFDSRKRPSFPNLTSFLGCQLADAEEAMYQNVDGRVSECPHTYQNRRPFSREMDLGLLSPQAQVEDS
Chain of Receptor-type tyrosine-protein kinase FLT3 (Homo sapiens), P36888 [UNDEFINED MUTATION] (P36888 whole entry, looked up, change not shown): as the sequence (P36888 whole entry) above

For `C=CCn1cc(-c2ccc(NC(=O)Nc3cc(C(C)(C)C)on3)cc2)c2c(N)ncnc21`, the Activity [1] was “Non-Toxic”, the Activity (MV4-11 [2]) was 12.7% and the Activity [3] was “Non-Toxic”. It also gave a fold change (FC) [4] of 0, an Activity (MOLM-13 [5]) of 2.84% and a fold change (FC) [6] of 0. The Activity (MOLM-13 [7]) was 0.76%, the Activity (MOLM-13 [8]) was 15.5% and the Activity (MV4-11 [9]) was 87.11%. The fold change (FC) [10] was 0, the Activity (MOLM-13 [11]) was 2.47% and the inhibition in vivo at 3 mg/kg (MOLM-13 [12]) was 94.5%. For the same molecule, the fold change (FC) [13] was 0, the Activity (MOLM-13 [14]) was 15.5% and the fold change (FC) (Homo sapiens [15]) was 0.1. For the same molecule, the viability at 1 µM (MV4-11 [16]) was 55%, the Activity (MV4-11 [17]) was 1.96% and the TGI (MV4-11 [18]) was “Dose-dependent effect”. For the same molecule, the viability at 0.001 µM (MV4-11 [19]) was 92.7%, the IC50 (HL-60) was > 1000 nM and the Activity (MV4-11 [20]) was 16.55%. The Ratio IC50 (Homo sapiens [21]) was > 40, the IC50 (BaF3) was 13 nM and the TGI (MOLM-13 [22]) was “Dose-dependent effect”. For the same molecule, the IC50 (MOLM-13 [23]) was 0.022 nM, the Activity (MV4-11 [24]) was 0.32% and the Activity (MV4-11 [25]) was 66.4%. The fold change (FC) [26] was 0 and the Activity (MV4-11 [27]) was 96.25%.
